From patent publication US10280170B2, “Substituted 4,5,6,7-tetrahydro-pyrazolo[1,5-a]pyrazine derivatives and 5,6,7,8-tetrahydro-4H-pyrazolo[1,5-a][1,4]diazepine derivatives as Ros1 inhibitors” (Janssen Pharmaceutica NV, priority 2014, dated 2019)
“And” between values parts separate entries of the source, which are not always exact repeats. Identical values can stand only once.

Key:
[1] = tested on: Ba/F3 tumors containing G2032R mutant Ros1; test: Efficacy study in mice bearing Ba/F3-Ros1 tumors, G2032R mutant Ros1; assay type: in vivo, NMRI nude mice; conditions: oral gavage, 10 days
Method: (§1) Efficacy Studies in Mice Bearing Ba/F3-Ros1 Tumors
(§2) Approximately 2×10^6 Ba/F3 cells containing either wild-type, L2026M or G2032R mutant Ros1 were inoculated into the inguinal region of NMRI nude mice. When the resulting tumors reached a size of 250 to 350 mm^3, mice were randomly assigned to the different treatment groups (8 to 12 mice per group). Compounds formulated in 20% cyclodextrin were administered to the mice by oral gavage at various doses for 10-days once (QD) or twice (BID) a day. Tumor sizes were determined by caliper measurement on day 1 prior to treatment and then twice weekly for the duration of the study using the commonly following formula: tumor volume (mm^3)=(a×b^2/2); where ‘a’ represents the length, and ‘b’ the width of the tumor. Treatment/control (T/C) ratios were calculated at the end of the study based on the change in final relative tumor volumes.

[2] = target: T1, Ros1 enzyme (Homo sapiens, UniProt P08922); test: Ros1 enzymatic assay; assay type: biochemical; conditions: Ros1 enzymatic assay; read-out: ROS1 pIC50 (converted)
T1 construct: 0.5 μg/ml Ros1 enzyme
Outline: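 Ros1 kinase, IRS-Tide peptide, 20 μM ATP + [33P]ATP (substrate-mix concentrations); Tris-HCl pH7.5, 10 mM MgCl2, 1 mM EGTA, 0.01% Tween-20; 120 min RT; EDTA/excess ATP stop, streptavidin beads 15 min, LEADseeker imaging.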

[3] = tested on: Ba/F3 tumors containing wild-type Ros1; test: Efficacy study in mice bearing Ba/F3-Ros1 tumors, wild-type Ros1; assay type: in vivo, NMRI nude mice; conditions: oral gavage, 10 days
Method: as §1, §2

[4] = tested on: HCC78 non-small cell lung cancer cells; test: HCC78 cell proliferation assay; assay type: cell-based; conditions: Homo sapiens, HCC78, 96 h, read-out: HCC-78 PROL pEC50 (converted)
Outline: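 HCC78 NSCLC cells (~1000/well) in RPMI-1640 with 10% FBS were treated 24 h after seeding and exposed to compound for 4 days at 37 °C. Viability was read by MTT, with absorbance at 538 nm after DMSO/glycine solubilization.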

[5] = tested on: Ros pY2274 in HCC78 cells; test: pROS1 immunofluorescence assay in HCC78 cells; assay type: cell-based; conditions: Homo sapiens, HCC78, 4 h, read-out: HCC78-pRos1 pIC50 (converted)
Outline: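 HCC78 NSCLC cells treated with compound for 4 h at 37 °C, then fixed and immunostained for ROS1 pY2274 (Alexa Fluor 680, read at 700 nm). Total ROS1 stained in parallel (IRDye800cw, 800 nm) and used to normalize phospho signal.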

[6] = tested on: Ba/F3 tumors containing L2026M mutant Ros1; test: Efficacy study in mice bearing Ba/F3-Ros1 tumors, L2026M mutant Ros1; assay type: in vivo, NMRI nude mice; conditions: oral gavage, 10 days
Method: as §1, §2

T1 sequence (P08922 28-2347): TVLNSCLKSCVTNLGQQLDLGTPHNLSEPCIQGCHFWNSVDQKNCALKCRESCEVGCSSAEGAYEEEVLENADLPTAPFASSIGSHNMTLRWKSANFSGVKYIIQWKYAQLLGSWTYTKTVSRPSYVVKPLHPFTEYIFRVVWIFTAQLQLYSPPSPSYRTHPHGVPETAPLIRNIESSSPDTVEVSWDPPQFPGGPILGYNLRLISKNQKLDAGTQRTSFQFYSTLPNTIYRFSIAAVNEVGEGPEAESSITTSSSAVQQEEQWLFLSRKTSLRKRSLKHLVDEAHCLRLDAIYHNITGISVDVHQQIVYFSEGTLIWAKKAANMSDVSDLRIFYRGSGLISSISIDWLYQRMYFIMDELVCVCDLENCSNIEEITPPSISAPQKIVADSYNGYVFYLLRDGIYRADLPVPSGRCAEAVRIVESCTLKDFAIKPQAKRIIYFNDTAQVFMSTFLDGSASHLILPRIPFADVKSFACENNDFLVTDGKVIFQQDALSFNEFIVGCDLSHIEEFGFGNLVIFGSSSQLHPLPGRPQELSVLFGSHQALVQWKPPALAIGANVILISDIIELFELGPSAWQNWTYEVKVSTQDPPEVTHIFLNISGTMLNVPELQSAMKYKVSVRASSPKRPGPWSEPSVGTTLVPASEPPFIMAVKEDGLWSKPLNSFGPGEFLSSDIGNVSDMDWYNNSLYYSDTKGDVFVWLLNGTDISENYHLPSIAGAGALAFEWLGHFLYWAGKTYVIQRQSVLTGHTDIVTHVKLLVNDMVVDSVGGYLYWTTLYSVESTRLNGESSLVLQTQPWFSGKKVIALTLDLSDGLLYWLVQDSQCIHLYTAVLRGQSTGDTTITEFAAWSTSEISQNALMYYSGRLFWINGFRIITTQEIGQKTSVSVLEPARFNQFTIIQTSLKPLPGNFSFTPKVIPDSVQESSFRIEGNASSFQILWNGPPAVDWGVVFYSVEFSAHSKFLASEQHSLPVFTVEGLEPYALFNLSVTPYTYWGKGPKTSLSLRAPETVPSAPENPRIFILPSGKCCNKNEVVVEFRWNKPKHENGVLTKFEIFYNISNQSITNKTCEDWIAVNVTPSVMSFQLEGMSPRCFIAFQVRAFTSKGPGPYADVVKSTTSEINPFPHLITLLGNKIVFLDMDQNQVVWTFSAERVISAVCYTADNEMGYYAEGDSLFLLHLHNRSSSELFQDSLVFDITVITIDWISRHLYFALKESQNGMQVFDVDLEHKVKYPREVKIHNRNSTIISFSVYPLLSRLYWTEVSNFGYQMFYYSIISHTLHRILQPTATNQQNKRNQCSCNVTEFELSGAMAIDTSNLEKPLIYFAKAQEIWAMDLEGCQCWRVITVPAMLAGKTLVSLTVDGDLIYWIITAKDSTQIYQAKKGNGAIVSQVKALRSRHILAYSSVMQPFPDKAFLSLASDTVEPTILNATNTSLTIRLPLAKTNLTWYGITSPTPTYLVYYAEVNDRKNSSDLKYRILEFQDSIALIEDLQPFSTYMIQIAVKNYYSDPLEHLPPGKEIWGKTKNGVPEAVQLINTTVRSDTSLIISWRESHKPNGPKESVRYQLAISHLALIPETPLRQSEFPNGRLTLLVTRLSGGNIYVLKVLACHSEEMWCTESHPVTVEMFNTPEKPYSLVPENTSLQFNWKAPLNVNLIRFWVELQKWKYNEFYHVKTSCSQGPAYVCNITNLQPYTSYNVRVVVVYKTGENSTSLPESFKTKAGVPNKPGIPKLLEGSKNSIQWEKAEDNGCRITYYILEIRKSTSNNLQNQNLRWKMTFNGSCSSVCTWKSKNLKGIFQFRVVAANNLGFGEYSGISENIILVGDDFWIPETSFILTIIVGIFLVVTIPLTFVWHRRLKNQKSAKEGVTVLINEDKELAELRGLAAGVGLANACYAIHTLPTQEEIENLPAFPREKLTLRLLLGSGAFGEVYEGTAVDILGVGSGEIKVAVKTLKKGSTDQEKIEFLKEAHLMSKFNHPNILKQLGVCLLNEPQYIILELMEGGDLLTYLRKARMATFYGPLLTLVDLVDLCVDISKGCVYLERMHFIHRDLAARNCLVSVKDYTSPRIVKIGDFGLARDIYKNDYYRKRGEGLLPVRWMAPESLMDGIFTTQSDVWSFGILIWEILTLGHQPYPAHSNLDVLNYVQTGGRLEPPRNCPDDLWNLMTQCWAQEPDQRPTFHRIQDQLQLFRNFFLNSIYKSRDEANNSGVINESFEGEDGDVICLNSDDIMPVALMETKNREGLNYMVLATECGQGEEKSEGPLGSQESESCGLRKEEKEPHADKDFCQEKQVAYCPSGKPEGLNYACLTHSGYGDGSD

| Compound | T/C (%) ([1]; 12.5 mg/kg BID) | T/C (%) ([1]; 25 mg/kg BID) | IC50 [2] [nM] | T/C (%) ([3]; 6.25 mg/kg BID) | T/C (%) ([3]; 12.5 mg/kg QD) | T/C (%) ([3]; 25 mg/kg QD) | EC50 [4] [nM] | IC50 [5] [nM] | T/C (%) ([6]; 12.5 mg/kg BID) | further results |
| --- | --- | --- | --- | --- | --- | --- | --- | --- | --- | --- |
| CC(C)c1ccc(COc2ccc(-c3c(-c4ccncc4)nn4c3C(=O)N(CCO)CC4)cc2)cc1 [Compound 2] | 89 | 55 | 20 | 67 | 61 | 46 | 126 | 25.1 | 82 | T/C (%) ([1]; 50 mg/kg BID): 18%; T/C (%) ([1]; 100 mg/kg BID): −16%; T/C (%) ([3]; 3.125 mg/kg BID): 91%; T/C (%) ([3]; 12.5 mg/kg BID, 12.5 mg/kg): 47% and 51%; T/C (%) ([3]; 50 mg/kg QD): 20%; T/C (%) ([3]; 100 mg/kg BID): −22%; T/C (%) ([6]; 25 mg/kg BID): 50%; T/C (%) ([6]; 50 mg/kg BID): 28%; T/C (%) ([6]; 100 mg/kg BID): −32% |
| CC(C)c1ccc(COc2ccc(-c3c(-c4ccncc4)nn4c3C(=O)NCC4)cc2)cc1 [Compound 1] | 43 | 7 | 25.1 | 50 | 12 | −27 | 126 | 25.1 | 23 | T/C (%) ([1]; 6.25 mg/kg BID): 79%; T/C (%) ([3]; 1.56 mg/kg QD): 88%; T/C (%) ([3]; 3.125 mg/kg QD): 75%; T/C (%) ([3]; 6.25 mg/kg QD): 35%; T/C (%) ([3]; 12.5 mg/kg BID): 20%; T/C (%) ([3]; 25 mg/kg BID): −13%; T/C (%) ([6]; 6.25 mg/kg BID): 94%; T/C (%) ([6]; 25 mg/kg QD): 42% |
